The record followed here is patent EP3822285A1, “VARIANT NISIN PEPTIDES” (University College Cork-National University of Ireland, Cork, priority 2019, dated 2021).

In brackets after ≈: the same amount, converted by molar mass. Several values for one entry are separate records, joined by “and”; a condition that tells them apart may be missing. Equal values may be shown once. Marks after values point to notes of the source that are not given here.

What all share (format): cell-based
One assay has as its system Thermus scotoductus SE-1. Put plainly: Agar diffusion assay with cell free supernatant of producing strains. Conditions: zone diameter relative to Nisin A wild type (100). The essentials: (§1)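 Cell-free supernatant (50 µl) from overnight nisin A or variant-producing L. lactis cultures placed in wells of Castenholz agar seeded with indicator strain. Plates incubated 55°C for 3 days; zone of clearance measured, reflecting combined peptide yield and specific activity; triplicate.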
(In general: A growth-free zone around the sample is the usual read-out of agar diffusion tests.)

The subject of assay [1] is Thermus thermophilus HB27. Described as above. The following applies: zone diameter relative to Nisin A wild type (100). The essentials:
as §1

For the next assay, the system named is T. rehai. The assay is described as follows: Minimum inhibitory concentration assay (Thermus). Conditions: pure peptide, mean of triplicate assays. The essentials: (§2)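 Purified, MALDI-TOF-confirmed nisin peptides tested in triplicate; wells pre-coated with 1% BSA then PBS-washed; Castenholz medium; ∼10^5 cfu/ml final; 55°C, 3 d; MIC = lowest conc. without visible growth.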

A further assay relates to T. brockianus. Put plainly: Minimum inhibitory concentration assay (Thermus). Conditions: pure peptide, mean of triplicate assays. The essentials: as §2
The next assay relates to T. scotoductus SE-1. Put plainly: Minimum inhibitory concentration assay (Thermus). Conditions: pure peptide, mean of triplicate assays. Summed up: as §2
The test system of a further assay is T. oshimai. The assay is described as follows: Minimum inhibitory concentration assay (Thermus). The following applies: pure peptide, mean of triplicate assays. The essentials:
as §2

Another assay deals with T. aquaticus. The assay is described as follows: Minimum inhibitory concentration assay (Thermus). The following applies: pure peptide, mean of triplicate assays. The essentials: as §2
The next assay deals with T. thermophilus HB27. The assay is described as follows: Minimum inhibitory concentration assay (Thermus). Conditions: pure peptide, mean of triplicate assays. The essentials:
as §2

The next assay deals with S. aureus RF122. Put plainly: Deferred antagonism assay. The following applies: producing strain. The protocol:
(§3) Mutagenesis of the nisA gene was carried out as described previously (Field et al., 2008). Briefly, saturation mutagenesis was carried out using pDF05 (pCI372-nisA) as template and using oligonucleotides containing an NNK codon in place of each native codon. PCR amplification was performed in a 50 µl reaction containing approximately 0.5 ng of target DNA (pDF05), 1 unit Phusion High-Fidelity DNA polymerase (Finnzymes, Finland), 1 mM dNTPs and 500 ng each of the appropriate forward and reverse oligonucleotide. The reaction was pre-heated at 98°C for 2 min, and then incubated for 29 cycles at 98°C for 30 s, 55°C for 15 s and 72°C for 3 min 30 s, and then finished by incubating at 72°C for 3 min 30 s. Amplified products were treated with Dpn1 (Stratagene) for 60 min at 37°C to digest template DNA and purified using the QIAquick PCR purification kit. Following transformation of E. coli Top 10 cells plasmid DNA was isolated and sequenced using primers pCI372FOR (5' […] 3') and pCI372REV (5' […] 3') to verify that mutagenesis had taken place. Approximately 150 transformants were chosen at random for each position and inoculated into 96-well plates containing GM17 chloramphenicol, incubated overnight and stored at -20°C after addition of 80% glycerol. Deferred antagonism assays were performed by replicating strains on GM17 agar plates and allowing them to grow overnight before overlaying with BHI agar (0.75% w/v agar) seeded with the appropriate indicator strain.
(§4) Previously, site-saturation mutagenesis-based strategies were used to generate strains producing bioengineered nisin derivatives in which all residues not involved in lanthionine ring formation (i.e. I1, T2, 14, S5, L6, P9, G10, K12, G14, A15, L16, M17, G18, N20, M21, K22, A24, H27, S29 130, H31, V32, S33 and K34) were each randomised to potentially all other natural amino acids, or whereby all three residues of the hinge-region (NMK) were randomised simultaneously (Rouse et al., 2012, Healy et al., 2013, Field et al., 2008). […] From this screen 76 variants of interest from the first round of screening were incorporated into a "mini-bank" for subsequent further analysis. The number of indicator strains was increased from five to thirteen to include S. uberis 43382, S. uberis DPC5344, S. dysgalactiae ATCC43078, L. lactis 303, L. cremoris KH, Lactobacillus bulgaricus NCDO2489, Lb. helveticus 2079 and Lb. acidophilus ATCC4356 (Table 1). Following this second round of screening, 6 variants of interest were deemed worthy of closer inspection. DNA sequencing of the mutated nisin gene as well as mass spectrometric analysis of the peptide produced by each strain established that these corresponded to nisin M17Q (methionine at position 17 altered to glutamine), nisin T2L (threonine 2 leucine) nisin HTK, VGA, VGV or VGT (where the hinge residues Asn-Met-Lys have been altered to His-Thr-Lys, Val-Gly-Ala, Val-Gly-Val or Val-Gly-Thr respectively). […] As a result, these derivatives were eliminated from this study, but will be the subject of further investigation as potential anti-mastitis antimicrobials. […] In the case of the derivatives nisin T2L and nisin HTK, the activity appeared reduced and equivalent to nisin A respectively (Figure 1), while improved activity was observed by both derivatives against S. agalactiae ATCC13813 and S. aureus RF122 (Table 2). On this basis, the nisin derivatives M17Q, T2L and HTK were selected for purification and specific activity assays. Purified peptides were subjected to Mass Spectrometry to confirm the correct mass in each case. In the case of T2L and HTK derivatives, the threonine remained in the unmodified form (data not shown).

Another assay has as its system L. lactis MG1363. The assay is described as follows: Deferred antagonism assay. The following applies: producing strain. The protocol: as §3, §4
For another assay, the system named is S. agalactiae ATCC13813. Put plainly: Deferred antagonism assay. The following applies: producing strain. The protocol:
as §3, §4

Assay [2] has as its system L. lactis HP. Put plainly: Deferred antagonism assay. The following applies: producing strain. As for the experimental part: as §3, §4
For a further assay, the system named is S. aureus strains. Put plainly: Minimum inhibitory concentration assay, panel of S. aureus strains. The following applies: panel of 12 S. aureus isolates; compared to nisin A. The protocol:
(§5) Minimum inhibitory concentration determinations were carried out in triplicate in 96 well microtitre plates. 96 well microtitre plates were pre-treated with bovine serum albumin (BSA) prior to addition of the peptides. Briefly, to each well of the microtitre plate 200 µL of phosphate buffered saline (PBS) containing 1% (w/v) bovine serum albumin (PBS/BSA) was added and incubated at 37°C for 30 min. The wells were washed with 200 µL PBS and allowed to dry. Target strains were grown overnight in the appropriate conditions and medium, subcultured into fresh broth and allowed to grow to an OD600 of ∼0.5, diluted to a final concentration of 10^5 cfu ml^-1 in a volume of 0.2 ml. The lyophilised peptides were resuspended in the appropriate media to a stock concentration of 30 µM. Wild type nisin and nisin mutant peptides were adjusted to a 7.5 or 5.0 µM or 500 nM starting concentration and 2-fold serial dilutions of each peptide were made in 96 well plates for a total of 12 dilutions.
(§6) To confirm that the observed enhanced activity of the nisin variants was due to increased specific activity, the activity of purified peptides were assessed using classical broth-based minimum inhibitory concentration (MIC) determination assays. […] Also included were the lactic acid bacteria targets L. lactis MG1363, L. lactis spp. lactis HP, B. longum UCC44b and Lb acidophilus ATCC 4356.

The next assay concerns S. aureus ST528(MRSA). Put plainly: Minimum inhibitory concentration assay. As for the experimental part:
as §5, §6

The subject of another assay is S. aureus ST534(MRSA). The assay is described as follows: Minimum inhibitory concentration assay. The protocol: as §5, §6
The next assay concerns S. aureus 513. Put plainly: Minimum inhibitory concentration assay. The following applies: purified peptide. As for the experimental part:
as §5, §6

A further assay relates to S. aureus DPC 5247. The assay is described as follows: Minimum inhibitory concentration assay. The following applies: purified peptide. The protocol: as §5, §6
A further assay deals with S. aureus 272. Put plainly: Minimum inhibitory concentration assay. The protocol:
as §5, §6

In assay [3] the test system is L. lactis HP. The assay is described as follows: Minimum inhibitory concentration assay. As for the experimental part:
as §5, §6

The next assay concerns S. aureus DPC 5243. The assay is described as follows: Minimum inhibitory concentration assay. The following applies: purified peptide. As for the experimental part: as §5, §6
A further assay relates to S. aureus DPC 5245. Put plainly: Minimum inhibitory concentration assay. Conditions: purified peptide. As for the experimental part:
as §5, §6

For another assay, the system named is S. aureus 5971. Put plainly: Minimum inhibitory concentration assay. As for the experimental part: as §5, §6
Assay [4] concerns Lb. acidophilus ATCC 4356. The protocol: as §5, §6
For a further assay, the system named is B. longum UCC 44b. As for the experimental part:
as §5, §6

Regarding `C=C(NC(=O)[C@@H](NC(=O)[C@H](Cc1c[nH]cn1)NC(=O)[C@@H](NC(=O)[C@H](CO)NC(=O)[C@@H]1CS[C@@H](C)[C@H]2NC(=O)[C@H](C)NC(=O)[C@H](NC(=O)[C@H](C)NC(=O)CNC(=O)[C@@H](NC(=O)[C@@H]3CS[C@@H](C)[C@@H](NC(=O)[C@H](CCCCN)NC(=O)[C@@H]4CS[C@@H](C)[C@@H](NC(=O)[C@@H]5CSC[C@@H](NC(=O)/C(=C/C)NC(=O)[C@@H](N)[C@@H](C)CC)C(=O)N[C@@H]([C@@H](C)CC)C(=O)NC(=C)C(=O)N[C@@H](CC(C)C)C(=O)N5)C(=O)N5CCC[C@H]5C(=O)NCC(=O)N4)C(=O)NCC(=O)N[C@@H](C)C(=O)N[C@@H](CC(C)C)C(=O)N[C@@H](CCSC)C(=O)NCC(=O)N3)C(C)C)[C@H](C)SC[C@H](NC2=O)C(=O)N[C@@H](Cc2c[nH]cn2)C(=O)N1)[C@@H](C)CC)C(C)C)C(=O)N[C@@H](CCCCN)C(=O)O` [VGA, nisin VGA], in the assay with Thermus scotoductus SE-1, the “% of wild type” value is listed as 127* (0.022) %. In addition, the “% difference” value in assay [1] was 169* (0.0002) %. Further, the MIC – broadly, the smallest concentration in the dilution series that meets the test's criterion for growth inhibition – in the assay on T. rehai worked out at 0.125 µM (≈ 0.401 µg/mL); against T. brockianus, 0.125 µM (≈ 0.401 µg/mL); with T. scotoductus SE-1 it was 0.125 µM (≈ 0.401 µg/mL); in the assay on T. oshimai, 0.0156 µM (≈ 0.05 µg/mL); in the assay with T. aquaticus, 0.0156 µM (≈ 0.05 µg/mL); against T. thermophilus HB27, 0.0312 µM (≈ 0.1 µg/mL). The “zone of inhibition (area of the zone of inhibition minus the area of the spot)” value in the assay on S. aureus RF122 is listed as 138.17 ± 8.12 mm2; in the assay with L. lactis MG1363 it was 230.92 ± 4.04 mm2; in the assay on S. agalactiae ATCC13813, 234.96 ± 25.45 mm2; in the assay with L. lactis HP [2], 362.16 ± 6.77 mm2.
For `C=C(NC(=O)[C@@H](NC(=O)[C@H](Cc1c[nH]cn1)NC(=O)[C@@H](NC(=O)[C@H](CO)NC(=O)[C@@H]1CS[C@@H](C)[C@H]2NC(=O)[C@H](C)NC(=O)[C@H](NC(=O)[C@H](CCCCN)NC(=O)[C@H](CCSC)NC(=O)[C@H](CC(N)=O)NC(=O)[C@@H]3CS[C@@H](C)[C@@H](NC(=O)[C@H](CCCCN)NC(=O)[C@@H]4CS[C@@H](C)[C@@H](NC(=O)[C@@H]5CSC[C@@H](NC(=O)[C@H](CC(C)C)NC(=O)[C@@H](N)[C@@H](C)CC)C(=O)N[C@@H]([C@@H](C)CC)C(=O)NC(=C)C(=O)N[C@@H](CC(C)C)C(=O)N5)C(=O)N5CCC[C@H]5C(=O)NCC(=O)N4)C(=O)NCC(=O)N[C@@H](C)C(=O)N[C@@H](CC(C)C)C(=O)N[C@@H](CCSC)C(=O)NCC(=O)N3)[C@H](C)SC[C@H](NC2=O)C(=O)N[C@@H](Cc2c[nH]cn2)C(=O)N1)[C@@H](C)CC)C(C)C)C(=O)N[C@@H](CCCCN)C(=O)O` [T2L, nisin T2L], the “number of S. aureus strains with enhanced specific activity” value in the assay with S. aureus strains was found to be 9. Moreover, the fold enhanced activity in the assay with S. aureus ST528(MRSA) (S. aureus ST528 (MRSA), compared to nisin A) was found to be 4 fold; in the assay with S. aureus ST534(MRSA) (S. aureus ST 534 (MRSA), compared to nisin A), 4 fold; in the assay on S. aureus 272 (compared to nisin A) it was 4 fold. Besides, the “Specific activity (MIC)” value with S. aureus ST528(MRSA) (S. aureus ST528(MRSA), purified peptide) was 0.125 Mg/L and 0.039 µM; in the assay on S. aureus ST534(MRSA) (S. aureus ST534(MRSA), purified peptide) it was 0.25 Mg/L and 0.078 µM; in the assay on S. aureus 513 it was 3 Mg/L and 0.937 µM; in the assay with S. aureus DPC 5247, 0.5 Mg/L and 0.156 µM; with S. aureus 272 (purified peptide), 0.75 Mg/L and 0.234 µM; in the assay on L. lactis HP [3] (purified peptide), 0.4 Mg/L and 0.125 µM. The “Specific activity (MIC)” value in the assay on S. aureus DPC 5243 is 0.5 Mg/L and 0.156 µM; in the assay with S. aureus DPC 5245 it was 0.5 Mg/L and 0.156 µM; in the assay on S. aureus 5971 (purified peptide), 1.5 Mg/L and 0.468 µM; in assay [4] (purified peptide), 0.12 Mg/L and 0.044 µM. Also, the “fold reduction in potency” value in the assay on L. lactis HP [3] (compared to wild-type nisin A) stood at 2 fold. In addition, in the assay on S. aureus 5971 (compared to nisin A), the fold improved activity is 16 fold. The “fold reduction in specific activity compared to wild type nisin A” value in assay [4] came out at 4 fold. Also, in the assay with B. longum UCC 44b, the “fold decreased activity compared to wild type peptide” value is 2 fold. In addition, the “zone of inhibition (area of the zone of inhibition minus the area of the spot)” value with S. aureus RF122 is 100.05 ± 14.96 mm2; in the assay on L. lactis MG1363, 80.11 ± 12.18 mm2; in the assay with S. agalactiae ATCC13813 it was 194.44 ± 6.22 mm2; in the assay with L. lactis HP [2], 134.12 ± 19.00 mm2.
